Laboratory results as given in PubChem BioAssay AID248 (DTP/NCI, 2004).
Several values for one entry are separate records, joined by “and”; a condition that tells them apart may be missing. Identical values can stand only once. Toxic doses and inconclusive results are not listed.

Tested on: L1210 leukemia ip in BDF1 mice, survival T/C
Experiment: NCI In Vivo Anticancer Drug Screen. Data for tumor model L1210 Leukemia (intraperitoneal) in B6D2F1 (BDF1) mice
Conditions: endpoint: mean survival time, higher = longer survival
Outline: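 Ratio derived from survival: compound-dosed mice over vehicle-dosed mice, all bearing a transplantable tumor.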

[1] = dose: 100.0 mg/kg/injection, schedule: Q04DX003 (ip), vehicle: saline

For `O=S(=O)(F)c1c(Cl)cccc1C[P+](c1ccccc1)(c1ccccc1)c1ccccc1`, the T/C (dose: 6.25 mg/kg/injection, schedule: Q01DX001 (ip), vehicle: saline with Tween-80) was 99 % of control, the T/C (dose: 12.5 mg/kg/injection, schedule: Q01DX001 (ip), vehicle: saline with Tween-80) was 100 % of control and the T/C (dose: 25.0 mg/kg/injection, schedule: Q01DX001 (ip), vehicle: saline) was 105 % of control.
With `Cc1nc2n[nH]c(N)c2nc1C` the T/C [1] was 98 % of control, the T/C (dose: 200.0 mg/kg/injection, schedule: Q04DX003 (ip), vehicle: saline) was 91 % of control and the T/C (dose: 400.0 mg/kg/injection, schedule: Q04DX003 (ip), vehicle: saline) was 88 % of control.
In the case of `CCNC(C)(C)C(SSSC(c1cccs1)C(C)(C)NCC)c1cccs1` (stereo unspecified), the T/C (dose: 25.0 mg/kg/injection, schedule: Q01DX009 (ip), vehicle: other) is reported as 108 % of control, the T/C (dose: 50.0 mg/kg/injection, schedule: Q01DX009 (ip), vehicle: other) is reported as 103 % of control and the T/C (dose: 100.0 mg/kg/injection, schedule: Q01DX009 (ip), vehicle: other) is reported as 97 % of control. The T/C [1] was 98 % of control.
With `OC1c2cc(Cl)ccc2-c2c(N=Cc3ccc4c(c3)OCO4)cc(Cl)cc21` (stereo unspecified) the T/C (dose: 100.0 mg/kg/injection, schedule: Q01DX001 (ip), vehicle: carboxymethylcellulose (CMC)) was 90 % of control, the T/C (dose: 200.0 mg/kg/injection, schedule: Q01DX001 (ip), vehicle: carboxymethylcellulose (CMC)) was 90 % of control and the T/C (dose: 400.0 mg/kg/injection, schedule: Q01DX001 (ip), vehicle: carboxymethylcellulose (CMC)) was 93 % of control.
In the case of `CCOC(=O)CC(C)NC1CCCCC1` (stereo unspecified), the T/C (dose: 100.0 mg/kg/injection, schedule: Q01DX Z (ip), vehicle: methylcellulose (MC)) is reported as 92 % of control and the T/C (dose: 200.0 mg/kg/injection, schedule: Q01DX Z (ip), vehicle: methylcellulose (MC)) is reported as 92 % of control.
With `CCOC(=O)NP(=O)(N1CC1)N1CC1` the T/C (dose: 0.16 mg/kg/injection, schedule: Q#A X Z (ip), vehicle: saline) was 100 % of control, the T/C (dose: 0.31 mg/kg/injection, schedule: Q#A X Z (ip), vehicle: saline) was 100 % of control and the T/C (dose: 0.32 mg/kg/injection, schedule: Q01DX Z (im), vehicle: saline) was 105 % of control. The T/C (dose: 0.32 mg/kg/injection, schedule: Q01DX Z (ip), vehicle: saline) was 102 % of control, the T/C (dose: 0.62 mg/kg/injection, schedule: Q#A X Z (ip), vehicle: saline) was 102 % of control and the T/C (dose: 0.63 mg/kg/injection, schedule: Q01DX Z (im), vehicle: saline) was 105 % of control. The T/C (dose: 0.63 mg/kg/injection, schedule: Q01DX Z (ip), vehicle: saline) was 98 % of control, the T/C (dose: 0.7 mg/kg/injection, schedule: Q01DX Z (ip), vehicle: carboxymethylcellulose (CMC)) was 101 % of control and the T/C (dose: 0.9 mg/kg/injection, schedule: Q03DX006 (ip), vehicle: saline) was 104 % of control. For the same compound, the T/C (dose: 1.25 mg/kg/injection, schedule: Q01DX Z (im), vehicle: saline) was 104 % of control, the T/C (dose: 1.25 mg/kg/injection, schedule: Q01DX Z (ip), vehicle: saline) was 105 % of control and the T/C (dose: 1.25 mg/kg/injection, schedule: Q01DX Z (oral), vehicle: saline) was 100 % of control. For the same compound, the T/C (dose: 1.25 mg/kg/injection, schedule: Q#A X Z (ip), vehicle: saline) was 121 % of control, the T/C (dose: 1.5 mg/kg/injection, schedule: Q01DX Z (ip), vehicle: carboxymethylcellulose (CMC)) was 104 % of control and the T/C (dose: 1.9 mg/kg/injection, schedule: Q03DX006 (ip), vehicle: saline) was 104 % of control. The T/C (dose: 2.2 mg/kg/injection, schedule: Q01DX001 (ip), vehicle: saline) was 101 % of control and 107 % of control, the T/C (dose: 2.2 mg/kg/injection, schedule: Q07DX003 (ip), vehicle: saline) was 105 % of control and the T/C (dose: 2.37 mg/kg/injection, schedule: Q01DX Z (ip), vehicle: carboxymethylcellulose (CMC)) was 114 % of control. For the same compound, the T/C (dose: 2.5 mg/kg/injection, schedule: Q01DX Z (im), vehicle: saline) was 107 % of control, the T/C (dose: 2.5 mg/kg/injection, schedule: Q01DX Z (ip), vehicle: saline) was 107 % of control and the T/C (dose: 2.5 mg/kg/injection, schedule: Q01DX Z (oral), vehicle: saline) was 107 % of control. For the same compound, the T/C (dose: 3.0 mg/kg/injection, schedule: Q01DX Z (ip), vehicle: carboxymethylcellulose (CMC)) was 113 % of control, the T/C (dose: 3.8 mg/kg/injection, schedule: Q03DX006 (ip), vehicle: saline) was 105 % of control and the T/C (dose: 4.4 mg/kg/injection, schedule: Q01DX001 (ip), vehicle: saline) was 102 % of control. For the same compound, the T/C (dose: 4.4 mg/kg/injection, schedule: Q07DX003 (ip), vehicle: saline) was 105 % of control, the T/C (dose: 5.0 mg/kg/injection, schedule: Q01DX006 (iv), vehicle: saline) was 100 % of control and the T/C (dose: 5.0 mg/kg/injection, schedule: Q01DX Z (oral), vehicle: saline) was 100 % of control. For the same compound, the T/C (dose: 5.0 mg/kg/injection, schedule: Q01DX Z (sc), vehicle: saline) was 120 % of control, the T/C (dose: 5.06 mg/kg/injection, schedule: Q01DX Z (ip), vehicle: carboxymethylcellulose (CMC)) was 117 % of control and the T/C (dose: 6.0 mg/kg/injection, schedule: Q01DX Z (ip), vehicle: carboxymethylcellulose (CMC)) was 158 % of control. For the same compound, the T/C (dose: 6.33 mg/kg/injection, schedule: Q01DX Z (ip), vehicle: carboxymethylcellulose (CMC)) was 124 % of control, the T/C (dose: 7.5 mg/kg/injection, schedule: Q03DX006 (ip), vehicle: saline) was 119 % of control and the T/C (dose: 8.7 mg/kg/injection, schedule: Q01DX001 (ip), vehicle: saline) was 108 % of control. For the same compound, the T/C (dose: 8.7 mg/kg/injection, schedule: Q07DX003 (ip), vehicle: saline) was 105 % of control, the T/C (dose: 8.75 mg/kg/injection, schedule: Q01DX001 (ip), vehicle: saline) was 113 % of control and 123 % of control and the T/C (dose: 9.5 mg/kg/injection, schedule: Q01DX Z (ip), vehicle: carboxymethylcellulose (CMC)) was 157 % of control. The T/C (dose: 10.0 mg/kg/injection, schedule: Q01DX006 (iv), vehicle: saline) was 105 % of control, the T/C (dose: 10.0 mg/kg/injection, schedule: Q01DX Z (im), vehicle: saline) was 160 % of control and the T/C (dose: 10.0 mg/kg/injection, schedule: Q01DX Z (ip), vehicle: saline) was 195 % of control. For the same compound, the T/C (dose: 10.0 mg/kg/injection, schedule: Q01DX Z (oral), vehicle: saline) was 115 % of control, the T/C (dose: 10.0 mg/kg/injection, schedule: Q#A X Z (ip), vehicle: saline) was 110 % of control and the T/C (dose: 12.0 mg/kg/injection, schedule: Q01DX Z (ip), vehicle: carboxymethylcellulose (CMC)) was 115 % of control. The T/C (dose: 12.66 mg/kg/injection, schedule: Q01DX Z (ip), vehicle: carboxymethylcellulose (CMC)) was 152 % of control, the T/C (dose: 15.0 mg/kg/injection, schedule: Q03DX007 (ip), vehicle: saline) was 182 % of control and the T/C (dose: 20.0 mg/kg/injection, schedule: Q01DX006 (iv), vehicle: saline) was 117 % of control. The T/C (dose: 20.0 mg/kg/injection, schedule: Q01DX Z (im), vehicle: saline) was 152 % of control, the T/C (dose: 20.0 mg/kg/injection, schedule: Q01DX Z (sc), vehicle: saline) was 175 % of control and the T/C (dose: 24.0 mg/kg/injection, schedule: Q01DX Z (ip), vehicle: carboxymethylcellulose (CMC)) was 94 % of control and 102 % of control. The T/C (dose: 30.0 mg/kg/injection, schedule: Q03DX007 (ip), vehicle: saline) was 165 % of control, the T/C (dose: 38.0 mg/kg/injection, schedule: Q01DX Z (ip), vehicle: carboxymethylcellulose (CMC)) was 94 % of control and the T/C (dose: 40.0 mg/kg/injection, schedule: Q01DX Z (im), vehicle: saline) was 94 % of control. The T/C (dose: 40.0 mg/kg/injection, schedule: Q01DX Z (ip), vehicle: saline) was 103 % of control, the T/C (dose: 40.0 mg/kg/injection, schedule: Q01DX Z (oral), vehicle: saline) was 155 % of control and the T/C (dose: 70.0 mg/kg/injection, schedule: Q07DX001 (ip), vehicle: saline) was 115 % of control. For the same compound, the T/C (dose: 80.0 mg/kg/injection, schedule: Q01DX Z (sc), vehicle: saline) was 111 % of control and the T/C (dose: 280.0 mg/kg/injection, schedule: Q01DX001 (ip), vehicle: saline) was 105 % of control.
In the case of `CCCCOP(=O)(/C=C\c1ccco1)OCCCC`, the T/C (dose: 25.0 mg/kg/injection, schedule: Q01DX009 (ip), vehicle: Klucel (hydroxypropylcellulose) (HPC)) is reported as 91 % of control, the T/C (dose: 50.0 mg/kg/injection, schedule: Q01DX009 (ip), vehicle: Klucel (hydroxypropylcellulose) (HPC)) is reported as 97 % of control and the T/C (dose: 100.0 mg/kg/injection, schedule: Q01DX009 (ip), vehicle: Klucel (hydroxypropylcellulose) (HPC)) is reported as 92 % of control. For the same compound, the T/C (dose: 100.0 mg/kg/injection, schedule: Q01DX009 (ip), vehicle: carboxymethylcellulose (CMC)) was 95 % of control.
In the case of `Nc1cccc2ncc(C=O)n12`, the T/C (dose: 37.5 mg/kg/injection, schedule: Q01DX001 (ip), vehicle: Klucel (hydroxypropylcellulose) (HPC)) is reported as 102 % of control, the T/C (dose: 75.0 mg/kg/injection, schedule: Q01DX001 (ip), vehicle: Klucel (hydroxypropylcellulose) (HPC)) is reported as 96 % of control and the T/C (dose: 150.0 mg/kg/injection, schedule: Q01DX001 (ip), vehicle: Klucel (hydroxypropylcellulose) (HPC)) is reported as 95 % of control.
For `CC12CCC(O)C(CC1)C2` (stereo unspecified), the T/C (dose: 100.0 mg/kg/injection, schedule: Q04DX003 (ip), vehicle: saline with Tween-80) was 107 % of control, the T/C (dose: 200.0 mg/kg/injection, schedule: Q04DX003 (ip), vehicle: saline with Tween-80) was 88 % of control and the T/C (dose: 400.0 mg/kg/injection, schedule: Q04DX003 (ip), vehicle: saline with Tween-80) was 95 % of control.
